Results taken from publication PMC11284788, “NN1213 – A Potent, Long-Acting, and Selective Analog of Human Amylin” (Journal of Medicinal Chemistry, 2024).
pEC50: −log10 of the molar value. Where two headings read alike, the source gives them in different places. Numbered stars: 1 amine (or outer) side, 2 acyl side, 3 side chain; on linkers, the order of the positions; unused ones are H or OH. Bridge positions count the residues as written; N and C are the ends. Peptide text beside a SMILES is read from it. * marks the point of attachment. C20 diacid = O=C(O)CCCCCCCCCCCCCCCCCCC(=O)*; γGlu = O=C(O)[C@H](CCC(=O)[*:2])N[*:1]

How the values were obtained:
[1] = ThT assay: fibril formation propensity and peptide recovery; type: physicochemical; details: for ThT, pH 4.0 lag-time: 250 μM peptide, 10 mM glycylglycine pH 4.0, 1 μM ThT, 37 °C, 960 rpm, 45 h, lowest of four replicas, average of experiments; for recovery: pH 4.0, residual dissolved peptide after 45 h of shaking, centrifugation and 0.22 μm filtration, HPLC, relative to amount before stress
Method in brief: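 Fibrillation lag time is read visually from ThT fluorescence-time curves (444/485 nm, 20-min reads, 45 h, 37 °C, 960 rpm shaking) of 250 μM peptide with 1 μM ThT at pH 4.0 or 7.5. The most conservative of four replicates is used. Peptide recovery is post-stress soluble peptide (HPLC, 215/276 nm) as fraction of initial.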

hAMY3R = target: T1, hAMY3R (Homo sapiens, UniProt O60896+P30988); assay: cAMP-responsive element luciferase reporter assay, human AMY3R; type: cell-based; parameters: expressed in transfected cells; details: for hAMY3R pEC50 / pEC50 / EC50: luciferase (human receptor assay); for hAMY3R pEC50 / EC50: Tables S12 and S14; for pEC50: BHK cells stably expressing hCTR+RAMP3 and CRE-luciferase, 3 h, 37 °C, 10% FBS, read-out: hAMY3R EC50; for ratio hCTR/hAMY3R: ratio of luciferase EC50 values; for EC50: read-out: hAMY3R pEC50 (converted)
T1 sequence (P30988 25-474): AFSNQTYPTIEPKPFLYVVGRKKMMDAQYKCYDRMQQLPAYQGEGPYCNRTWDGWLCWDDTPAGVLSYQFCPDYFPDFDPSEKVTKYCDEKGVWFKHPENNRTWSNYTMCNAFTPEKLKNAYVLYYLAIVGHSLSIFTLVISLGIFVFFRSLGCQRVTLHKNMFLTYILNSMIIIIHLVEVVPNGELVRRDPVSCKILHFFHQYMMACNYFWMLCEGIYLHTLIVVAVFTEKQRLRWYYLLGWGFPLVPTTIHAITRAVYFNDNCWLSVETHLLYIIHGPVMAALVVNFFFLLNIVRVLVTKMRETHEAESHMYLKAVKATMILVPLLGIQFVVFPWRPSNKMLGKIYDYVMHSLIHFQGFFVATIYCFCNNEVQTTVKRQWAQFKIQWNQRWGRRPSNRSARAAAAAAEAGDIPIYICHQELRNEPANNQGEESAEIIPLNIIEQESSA
T1 sequence (O60896 24-148 partner): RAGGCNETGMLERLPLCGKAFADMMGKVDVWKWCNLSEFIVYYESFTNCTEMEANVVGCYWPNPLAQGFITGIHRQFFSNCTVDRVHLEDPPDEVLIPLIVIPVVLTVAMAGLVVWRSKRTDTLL

Compound | ThT, pH 4.0 lag-time [1] [h] | recovery [1] [%] | hAMY3R pEC50 (hAMY3R) | pEC50 (hAMY3R) | ratio hCTR/hAMY3R (hAMY3R) | EC50 (hAMY3R) [nM]
CC[C@H](C)[C@H](NC(=O)[C@H](C)NC(=O)CNC(=O)[C@H](Cc1ccccc1)NC(=O)[C@H](CC(N)=O)NC(=O)[C@@H]1CCCN1C(=O)[C@H](CO)NC(=O)[C@H](CO)NC(=O)[C@H](Cc1c[nH]cn1)NC(=O)[C@H](CCCNC(=N)N)NC(=O)[C@H](CC(C)C)NC(=O)[C@H](Cc1ccccc1)NC(=O)[C@H](CC(N)=O)NC(=O)[C@H](C)NC(=O)[C@H](CC(C)C)NC(=O)[C@H](CCCNC(=N)N)NC(=O)[C@H](CCC(N)=O)NC(=O)[C@@H](NC(=O)[C@H](C)NC(=O)[C@@H]1CSSC[C@H](NC(=O)[C@H](CCCCN)NC(=O)COCCOCCNC(=O)COCCOCCNC(=O)CC[C@H](NC(=O)CCCCCCCCCCCCCCCCCCC(=O)O)C(=O)O)C(=O)N[C@@H](CC(N)=O)C(=O)N[C@@H]([C@@H](C)O)C(=O)N[C@@H](C)C(=O)N[C@@H]([C@@H](C)O)C(=O)N1)[C@@H](C)O)C(=O)N1CCC[C@H]1C(=O)N[C@@H](CO)C(=O)N[C@@H](CO)C(=O)N[C@H](C(=O)N[C@@H](CC(N)=O)C(=O)N[C@H](C(=O)NCC(=O)N[C@@H](CO)C(=O)N[C@@H](CC(N)=O)C(=O)N[C@H](C(=O)N[C@@H](Cc1ccc(O)cc1)C(N)=O)[C@@H](C)O)C(C)C)[C@@H](C)O [Peptide 10] | 34 | 0 | 9.36 | 9.36 | 23 | 
CC[C@H](C)[C@H](NC(=O)[C@H](C)NC(=O)CNC(=O)[C@H](Cc1ccccc1)NC(=O)[C@H](CC(N)=O)NC(=O)[C@@H]1CCCN1C(=O)[C@H](CO)NC(=O)[C@H](CO)NC(=O)[C@H](Cc1c[nH]cn1)NC(=O)[C@H](CCCNC(=N)N)NC(=O)[C@H](CC(C)C)NC(=O)[C@H](Cc1ccccc1)NC(=O)[C@H](CC(N)=O)NC(=O)[C@H](C)NC(=O)[C@H](CC(C)C)NC(=O)[C@H](CCCNC(=N)N)NC(=O)[C@H](CCC(N)=O)NC(=O)[C@@H](NC(=O)[C@H](C)NC(=O)[C@@H]1CSSC[C@H](NC(=O)[C@H](CCCCN)NC(=O)CC[C@H](NC(=O)CCCCCCCCCCCCCCCCCCC(=O)O)C(=O)O)C(=O)N[C@@H](CC(N)=O)C(=O)N[C@@H]([C@@H](C)O)C(=O)N[C@@H](C)C(=O)N[C@@H]([C@@H](C)O)C(=O)N1)[C@@H](C)O)C(=O)N1CCC[C@H]1C(=O)N[C@@H](CO)C(=O)N[C@@H](CO)C(=O)N[C@H](C(=O)N1CCC[C@H]1C(=O)N[C@H](C(=O)NCC(=O)N[C@@H](CO)C(=O)N[C@@H](CCC(=O)O)C(=O)N[C@H](C(=O)N[C@@H](Cc1ccc(O)cc1)C(N)=O)[C@@H](C)O)C(C)C)[C@@H](C)O [Peptide 11] ({C20 diacid-γGlu}-KCNTATCATQRLANFLRHSSPNFGAIPSSTPVGSETY-NH2; disulfide 2-7) | 40 | 74 |  | 9.73 | 11 | 0.186
CC[C@H](C)[C@H](NC(=O)[C@H](C)NC(=O)CNC(=O)[C@H](Cc1ccccc1)NC(=O)[C@H](CC(N)=O)NC(=O)[C@@H]1CCCN1C(=O)[C@H](CO)NC(=O)[C@H](CO)NC(=O)[C@H](Cc1c[nH]cn1)NC(=O)[C@H](CCCNC(=N)N)NC(=O)[C@H](CC(C)C)NC(=O)[C@H](Cc1ccccc1)NC(=O)[C@H](CCC(=O)O)NC(=O)[C@H](C)NC(=O)[C@H](CC(C)C)NC(=O)[C@H](CCCNC(=N)N)NC(=O)[C@H](CCC(N)=O)NC(=O)[C@@H](NC(=O)[C@H](C)NC(=O)[C@@H]1CSSC[C@H](NC(=O)[C@H](CCCCN)NC(=O)CC[C@H](NC(=O)CCCCCCCCCCCCCCCCCCC(=O)O)C(=O)O)C(=O)N[C@@H](CC(N)=O)C(=O)N[C@@H]([C@@H](C)O)C(=O)N[C@@H](C)C(=O)N[C@@H]([C@@H](C)O)C(=O)N1)[C@@H](C)O)C(=O)N1CCC[C@H]1C(=O)N[C@@H](CO)C(=O)N[C@@H](CO)C(=O)N[C@H](C(=O)N[C@@H](CC(N)=O)C(=O)N[C@H](C(=O)NCC(=O)N1CCC[C@H]1C(=O)N[C@@H](CC(N)=O)C(=O)N[C@H](C(=O)N[C@@H](Cc1ccc(O)cc1)C(N)=O)[C@@H](C)O)C(C)C)[C@@H](C)O [Peptide 12] ({C20 diacid-γGlu}-KCNTATCATQRLAEFLRHSSPNFGAIPSSTNVGPNTY-NH2; disulfide 2-7) | >45 | 78 |  | 10.33 | 6.7 | 0.0468
CC[C@H](C)[C@H](NC(=O)[C@H](C)NC(=O)CNC(=O)[C@H](Cc1ccccc1)NC(=O)[C@H](CC(N)=O)NC(=O)[C@@H]1CCCN1C(=O)[C@H](CO)NC(=O)[C@H](CO)NC(=O)[C@H](Cc1c[nH]cn1)NC(=O)[C@H](CCCNC(=N)N)NC(=O)[C@H](CC(C)C)NC(=O)[C@H](Cc1ccccc1)NC(=O)[C@H](CC(N)=O)NC(=O)[C@H](C)NC(=O)[C@H](CC(C)C)NC(=O)[C@H](CCCNC(=N)N)NC(=O)[C@H](CCC(N)=O)NC(=O)[C@@H](NC(=O)[C@H](C)NC(=O)[C@@H]1CSSC[C@H](NC(=O)[C@H](CCCCN)NC(=O)CC[C@H](NC(=O)CCCCCCCCCCCCCCCCCCC(=O)O)C(=O)O)C(=O)N[C@@H](CC(N)=O)C(=O)N[C@@H]([C@@H](C)O)C(=O)N[C@@H](C)C(=O)N[C@@H]([C@@H](C)O)C(=O)N1)[C@@H](C)O)C(=O)N1CCC[C@H]1C(=O)N[C@@H](CO)C(=O)N[C@@H](CO)C(=O)N[C@H](C(=O)N[C@@H](CC(N)=O)C(=O)N[C@H](C(=O)NCC(=O)N[C@@H](CO)C(=O)N[C@@H](CCCCN)C(=O)N[C@H](C(=O)N[C@@H](Cc1ccc(O)cc1)C(N)=O)[C@@H](C)O)C(C)C)[C@@H](C)O [Peptide 13] | 35 | 99 |  | 9.51 | 8.4 | 0.309
CC[C@H](C)[C@H](NC(=O)[C@H](C)NC(=O)CNC(=O)[C@H](Cc1ccccc1)NC(=O)[C@H](CC(N)=O)NC(=O)[C@@H]1CCCN1C(=O)[C@H](CO)NC(=O)[C@H](CO)NC(=O)[C@H](Cc1c[nH]cn1)NC(=O)[C@H](CCCNC(=N)N)NC(=O)[C@H](CC(C)C)NC(=O)[C@H](Cc1ccccc1)NC(=O)[C@H](CC(N)=O)NC(=O)[C@H](C)NC(=O)[C@H](CC(C)C)NC(=O)[C@H](CCCNC(=N)N)NC(=O)[C@H](CCC(N)=O)NC(=O)[C@@H](NC(=O)[C@H](C)NC(=O)[C@@H]1CSSC[C@H](NC(=O)[C@@H](N)CCCCNC(=O)CC[C@H](NC(=O)CCCCCCCCCCCCCCCCCCC(=O)O)C(=O)O)C(=O)N[C@@H](CC(N)=O)C(=O)N[C@@H]([C@@H](C)O)C(=O)N[C@@H](C)C(=O)N[C@@H]([C@@H](C)O)C(=O)N1)[C@@H](C)O)C(=O)N1CCC[C@H]1C(=O)N[C@@H](CO)C(=O)N[C@@H](CO)C(=O)N[C@H](C(=O)N[C@@H](CC(N)=O)C(=O)N[C@H](C(=O)NCC(=O)N[C@@H](CO)C(=O)N[C@@H](CCCCN)C(=O)N[C@H](C(=O)N[C@@H](Cc1ccc(O)cc1)C(N)=O)[C@@H](C)O)C(C)C)[C@@H](C)O [Peptide 14] | >45 | 100 | 9.44 |  | 15 | 
CC[C@H](C)[C@H](NC(=O)[C@H](C)NC(=O)CNC(=O)[C@H](Cc1ccccc1)NC(=O)[C@H](CC(N)=O)NC(=O)[C@@H]1CCCN1C(=O)[C@H](CO)NC(=O)[C@H](CO)NC(=O)[C@H](Cc1c[nH]cn1)NC(=O)[C@H](CCCNC(=N)N)NC(=O)[C@H](CC(C)C)NC(=O)[C@H](Cc1ccccc1)NC(=O)[C@H](CC(N)=O)NC(=O)[C@H](C)NC(=O)[C@H](CC(C)C)NC(=O)[C@H](CCCNC(=N)N)NC(=O)[C@H](CCC(N)=O)NC(=O)[C@@H](NC(=O)[C@H](C)NC(=O)[C@@H]1CSSC[C@H](NC(=O)[C@H](CCCCN)NC(=O)CC[C@H](NC(=O)CCCCCCCCCCCCCCCCCCC(=O)O)C(=O)O)C(=O)N[C@@H](CC(N)=O)C(=O)N[C@@H]([C@@H](C)O)C(=O)N[C@@H](C)C(=O)N[C@@H]([C@@H](C)O)C(=O)N1)[C@@H](C)O)C(=O)N1CCC[C@H]1C(=O)N[C@@H](CO)C(=O)N[C@@H](CO)C(=O)N[C@H](C(=O)N[C@@H](CC(N)=O)C(=O)N[C@H](C(=O)NCC(=O)N[C@@H](CCCNC(=N)N)C(=O)N[C@@H](CC(N)=O)C(=O)N[C@H](C(=O)N[C@@H](Cc1ccc(O)cc1)C(N)=O)[C@@H](C)O)C(C)C)[C@@H](C)O [Peptide 16] | >45 | 100 | 9.66 |  | 12 | 
